From patent US20220105058A1, “USE OF 3-O-SULFAMATE-16,16-DIMETHYL-D-HOMOEQUILENIN TO TREAT ONCOLOGICAL DISEASES” (priority 2018, published 2022)

Experiments:
[1] = second class: low solubility and high permeability; first class: high solubility and high permeability; cited from earlier work
[2] = system: triple negative breast cancer MDA-MB-231 cell line; assay: cell proliferation in MDA-MB-231; format: cell-based
[3] = release of free hormone; cited from earlier work

Structure (SMILES): N#Cc1ccc(C(c2ccc(C#N)cc2)n2cncn2)cc1 [letrozole]
- class according to the biopharmaceutical classification system (BCS) [1]: first class

Structure (SMILES): CC(C)(C#N)c1cc(Cn2cncn2)cc(C(C)(C)C#N)c1 [anastrazole]
- class according to the biopharmaceutical classification system (BCS) [1]: first class

Structure (SMILES): COc1cc([C@@H]2c3cc4c(cc3[C@@H](O[C@@H]3O[C@@H]5CO[C@@H](C)O[C@H]5[C@H](O)[C@H]3O)[C@H]3COC(=O)[C@H]23)OCO4)cc(OC)c1O [etoposide, reference compound]
- inhibition of cell proliferation [2]: similar

Structure (SMILES): C[C@]12CC[C@@H]3c4ccc(OS(N)(=O)=O)cc4CC[C@H]3[C@@H]1CCC2=O [estrone sulfamate]
- uterotropic activity [3]: strong uterotropic activity
